# Results as given in ChEMBL document CHEMBL6177971, “Iterative Optimization Yields Stapled Peptides with Superior Pharmacokinetics and Potency for Renal Fibrosis Treatment” (J Med Chem, 2025).
# Activity calls are given as the source filed them. The calls are words filed in the database; no cut-off is given here. *1 amine or outer side, *2 acyl side, *3 side chain or, on linkers, in order; H or OH if unused. Where a SMILES comes first, the peptide text is derived from it. [ ]: non-standard residue; d: D form. X1 = CCCCC[C@](C)(N[*:1])C(=O)[*:2]; S5 = C=CCCC[C@](C)(N)C(=O)O
# Tests used:
# Mus musculus [1] = assay: Anti-fibrotic activity in C57BL/6J mouse model of unilateral ureteral obstruction assessed as decrease in renal inflammation at 20 mg/kg, ip administered every day for 7 days by H and E staining based analysis; format: functional, organism-based; conditions: time 7.0 day
# Mus musculus [2] = assay: Anti-fibrotic activity in C57BL/6J mouse model of unilateral ureteral obstruction assessed as decrease in renal fibrosis at 20 mg/kg, ip administered every day for 7 days by H and E staining based analysis; format: functional, organism-based; conditions: time 7.0 day
# [3] = Retention time of compound; format: physicochemical
# HK-2 [4] = assay: Inhibition of TGF-beta1-induced EMT in human HK-2 cells assessed as decrease in alpha-SMA level at 10 uM incubated for 24 hrs by Western blot analysis; format: functional, cell-based
# HK-2 [5] = assay: Inhibition of TGF-beta1-induced EMT in human HK-2 cells assessed as decrease in fibronectin level at 10 uM incubated for 24 hrs by Western blot analysis; format: functional, cell-based
# HK-2 [6] = assay: Inhibition of TGF-beta1-induced EMT in human HK-2 cells assessed as decrease in collagen I level at 10 uM incubated for 24 hrs by Western blot analysis; format: functional, cell-based
# [7] = Toxicity in male C57BL/6J mouse model of unilateral ureteral obstruction assessed as change in animal appearance administered intraperitoneally every day for 7 days; conditions: in vivo, ip, 168 h, time 7 day
# [8] = Toxicity in male C57BL/6J mouse model of unilateral ureteral obstruction assessed as change in animal behaviour administered intraperitoneally every day for 7 days; conditions: in vivo, ip, 168 h, time 7 day
# [9] = Toxicity in male C57BL/6J mouse model of unilateral ureteral obstruction assessed as change in animal body weight administered intraperitoneally every day for 7 days; conditions: in vivo, ip, 168 h, time 7 day
# Mus musculus [10] = assay: Anti-fibrotic activity in male C57BL/6J mouse model of unilateral ureteral obstruction assessed as decrease in fibronectin level administered intraperitoneally every day for 7 days by Western blot analysis; format: functional, organism-based; conditions: route ip, time 7.0 day
# Mus musculus [11] = assay: Anti-fibrotic activity in male C57BL/6J mouse model of unilateral ureteral obstruction assessed as increase in E-cadherin level administered intraperitoneally every day for 7 days by Western blot analysis; format: functional, organism-based; conditions: route ip, time 7.0 day
# Mus musculus [12] = assay: Anti-fibrotic activity in male C57BL/6J mouse model of unilateral ureteral obstruction assessed as decrease in vimentin level administered intraperitoneally every day for 7 days by Western blot analysis; format: functional, organism-based; conditions: route ip, time 7.0 day
# Mus musculus [13] = assay: Anti-fibrotic activity in male C57BL/6J mouse model of unilateral ureteral obstruction assessed as decrease in alpha-SMA level administered intraperitoneally every day for 7 days by Western blot analysis; format: functional, organism-based; conditions: route ip, time 7.0 day
# [14] = Half life of compound; format: physicochemical
# [15] = Half life in C57BL/6J mouse at 2.5 mg/kg, iv measured for 3 to 60 mins by HPLC/MS analysis; format: ADME, organism-based; conditions: in vivo, time 3-60 min
Retention_time [3] [min],half-life [14] [min],half-life [15] [min],SMILES,Activity (Mus musculus [1]),Activity (Mus musculus [2]),inhibition (HK-2 [4]),inhibition (HK-2 [5]),inhibition (HK-2 [6]),Activity [7],Activity [8],Activity [9],Activity (Mus musculus [10]),Activity (Mus musculus [11]),Activity (Mus musculus [12]),Activity (Mus musculus [13])
,,,C[C@H](CS)C(=O)N1CCC[C@H]1C(=O)O,Active,Active,,,,,,,,,,
10.009,,,CCCCC[C@](C)(NC(=O)[C@H](Cc1c[nH]cn1)NC(=O)[C@@H](N)CC(=O)O)C(=O)N[C@@H](CC(N)=O)C(=O)N1CCC[C@H]1C(=O)N[C@@H](CCC(N)=O)C(=O)N[C@H](C(=O)N[C@@H](CCCNC(=N)N)C(N)=O)[C@@H](C)CC (H-DH[X1]NPQIR-NH2),,,Active,Active,Active,Non-toxic,Non-toxic,Non-toxic,Active,Active,Active,Active
9.036,98.4,11.4,C=CCCC[C@](C)(NC(=O)[C@H](Cc1c[nH]cn1)NC(=O)[C@@H](N)CC(=O)O)C(=O)N[C@@H](CC(N)=O)C(=O)N1CCC[C@H]1C(=O)N[C@@H](CCC(N)=O)C(=O)N[C@H](C(=O)N[C@@H](CCCNC(=N)N)C(N)=O)[C@@H](C)CC (H-DH[S5]NPQIR-NH2),,,Active,Active,Active,Non-toxic,Non-toxic,Non-toxic,Active,Active,Active,Active
